# Experimental data: PubChem BioAssay (NCI)
#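 Step 1: Grow cells in 96-well plates. Step 2: Expose to compound for 48 hours at 5 concentrations. Step 3: Interpolate endpoints linearly; if unreached, use highest concentration. The concentration for 50% growth inhibition is given as GI50. TGI is the concentration that stops growth completely.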
# Assays:
# Assay in all cases: inhibition of tumour cell growth, NCI panel, 48 h
# 786-0 renal = tested on: 786-0 renal
# A549 NSCLC = tested on: A549 NSCLC
# ACHN renal = tested on: ACHN renal
# BT-549 breast = tested on: BT-549 breast
# CAKI-1 renal = tested on: CAKI-1 renal
# CCRF-CEM leukemia = tested on: CCRF-CEM leukemia
# COLO 205 colon = tested on: COLO 205 colon
# DU-145 prostate = tested on: DU-145 prostate
# EKVX NSCLC = tested on: EKVX NSCLC
# HCC-2998 colon = tested on: HCC-2998 colon
# HCT-116 colon = tested on: HCT-116 colon
# HCT-15 colon = tested on: HCT-15 colon
# HL-60(TB) leukemia = tested on: HL-60(TB) leukemia
# HOP-62 NSCLC = tested on: HOP-62 NSCLC
# HOP-92 NSCLC = tested on: HOP-92 NSCLC
# HS 578T breast = tested on: HS 578T breast
# HT29 colon = tested on: HT29 colon
# IGROV1 ovarian = tested on: IGROV1 ovarian
# K-562 leukemia = tested on: K-562 leukemia
# KM12 colon = tested on: KM12 colon
# LOX IMVI melanoma = tested on: LOX IMVI melanoma
# M14 melanoma = tested on: M14 melanoma
# MALME-3M melanoma = tested on: MALME-3M melanoma
# MCF7 breast = tested on: MCF7 breast
# MDA-MB-231 breast = tested on: MDA-MB-231 breast
# MDA-MB-435 = tested on: MDA-MB-435
# MOLT-4 leukemia = tested on: MOLT-4 leukemia
# NCI-H226 lung = tested on: NCI-H226 lung
# NCI-H23 lung = tested on: NCI-H23 lung
# NCI-H460 lung = tested on: NCI-H460 lung
# NCI-H522 lung = tested on: NCI-H522 lung
# NCI/ADR-RES ovarian = tested on: NCI/ADR-RES ovarian
# OVCAR-3 ovarian = tested on: OVCAR-3 ovarian
# OVCAR-4 ovarian = tested on: OVCAR-4 ovarian
# OVCAR-5 ovarian = tested on: OVCAR-5 ovarian
# OVCAR-8 ovarian = tested on: OVCAR-8 ovarian
# PC-3 prostate = tested on: PC-3 prostate
# RPMI-8226 leukemia = tested on: RPMI-8226 leukemia
# RXF 393 renal = tested on: RXF 393 renal
# SF-268 CNS = tested on: SF-268 CNS
# SF-295 CNS = tested on: SF-295 CNS
# SF-539 CNS = tested on: SF-539 CNS
# SK-MEL-2 melanoma = tested on: SK-MEL-2 melanoma
# SK-MEL-28 melanoma = tested on: SK-MEL-28 melanoma
# SK-MEL-5 melanoma = tested on: SK-MEL-5 melanoma
# SK-OV-3 ovarian = tested on: SK-OV-3 ovarian
# SN12C renal = tested on: SN12C renal
# SNB-19 CNS = tested on: SNB-19 CNS
# SNB-75 CNS = tested on: SNB-75 CNS
# SR leukemia = tested on: SR leukemia
# SW-620 colon = tested on: SW-620 colon
# T-47D breast = tested on: T-47D breast
# TK-10 renal = tested on: TK-10 renal
# U251 CNS = tested on: U251 CNS
# UACC-257 melanoma = tested on: UACC-257 melanoma
# UACC-62 melanoma = tested on: UACC-62 melanoma
# UO-31 renal = tested on: UO-31 renal
smiles,measurement,setting,value
CC(=O)n1c(-c2ccc(Cl)cc2)nc2c(c1=O)C(c1ccc(Cl)cc1)c1sc3c(Cl)cccc3c1O2 (centres undefined),GI50,786-0 renal,0.48 µM
same,TGI,786-0 renal,1.7 µM
same,GI50,A549 NSCLC,0.835 µM
same,TGI,A549 NSCLC,2.32 µM
same,GI50,ACHN renal,1 µM
same,TGI,ACHN renal,3.91 µM
same,GI50,BT-549 breast,0.373 µM
same,TGI,BT-549 breast,1.89 µM
same,GI50,CAKI-1 renal,0.488 µM
same,TGI,CAKI-1 renal,3.03 µM
same,GI50,CCRF-CEM leukemia,0.383 µM
same,TGI,CCRF-CEM leukemia,4.12 µM
same,GI50,COLO 205 colon,0.364 µM
same,TGI,COLO 205 colon,1.57 µM
same,GI50,DU-145 prostate,0.499 µM
same,TGI,DU-145 prostate,2.38 µM
same,GI50,EKVX NSCLC,0.926 µM
same,TGI,EKVX NSCLC,3.71 µM
same,GI50,HCC-2998 colon,1.09 µM
same,TGI,HCC-2998 colon,2.57 µM
same,GI50,HCT-116 colon,0.301 µM
same,TGI,HCT-116 colon,1.44 µM
same,GI50,HCT-15 colon,0.418 µM
same,TGI,HCT-15 colon,1.74 µM
same,GI50,HL-60(TB) leukemia,0.289 µM
same,TGI,HL-60(TB) leukemia,0.853 µM
same,GI50,HOP-62 NSCLC,0.374 µM
same,TGI,HOP-62 NSCLC,1.76 µM
same,GI50,HOP-92 NSCLC,1.27 µM
same,TGI,HOP-92 NSCLC,4.61 µM
same,GI50,HS 578T breast,0.396 µM
same,TGI,HS 578T breast,3.23 µM
same,GI50,HT29 colon,0.368 µM
same,TGI,HT29 colon,1.33 µM
same,GI50,IGROV1 ovarian,0.847 µM
same,TGI,IGROV1 ovarian,3.11 µM
same,GI50,K-562 leukemia,0.405 µM
same,TGI,K-562 leukemia,2.32 µM
same,GI50,KM12 colon,0.433 µM
same,TGI,KM12 colon,1.78 µM
same,GI50,LOX IMVI melanoma,0.59 µM
same,TGI,LOX IMVI melanoma,1.91 µM
same,GI50,M14 melanoma,0.3 µM
same,TGI,M14 melanoma,1.24 µM
same,GI50,MALME-3M melanoma,0.669 µM
same,TGI,MALME-3M melanoma,2.5 µM
same,GI50,MCF7 breast,0.282 µM
same,TGI,MCF7 breast,1.47 µM
same,GI50,MDA-MB-231 breast,0.887 µM
same,TGI,MDA-MB-231 breast,2.89 µM
same,GI50,MDA-MB-435,0.167 µM
same,TGI,MDA-MB-435,0.463 µM
same,GI50,MOLT-4 leukemia,0.409 µM
same,TGI,MOLT-4 leukemia,2.54 µM
same,GI50,NCI-H226 lung,0.323 µM
same,TGI,NCI-H226 lung,1.78 µM
same,GI50,NCI-H23 lung,0.513 µM
same,TGI,NCI-H23 lung,2.32 µM
same,GI50,NCI-H460 lung,0.365 µM
same,TGI,NCI-H460 lung,1.39 µM
same,GI50,NCI-H522 lung,0.296 µM
same,TGI,NCI-H522 lung,1.63 µM
same,GI50,NCI/ADR-RES ovarian,0.292 µM
same,TGI,NCI/ADR-RES ovarian,1.01 µM
same,GI50,OVCAR-3 ovarian,0.402 µM
same,TGI,OVCAR-3 ovarian,1.5 µM
same,GI50,OVCAR-4 ovarian,0.696 µM
same,TGI,OVCAR-4 ovarian,4.25 µM
same,GI50,OVCAR-5 ovarian,1.72 µM
same,TGI,OVCAR-5 ovarian,4.31 µM
same,GI50,OVCAR-8 ovarian,0.626 µM
same,TGI,OVCAR-8 ovarian,3.02 µM
same,GI50,PC-3 prostate,0.37 µM
same,TGI,PC-3 prostate,2.69 µM
same,GI50,RPMI-8226 leukemia,0.504 µM
same,TGI,RPMI-8226 leukemia,4.75 µM
same,GI50,RXF 393 renal,0.251 µM
same,TGI,RXF 393 renal,0.85 µM
same,GI50,SF-268 CNS,0.684 µM
same,TGI,SF-268 CNS,3.24 µM
same,GI50,SF-295 CNS,0.31 µM
same,TGI,SF-295 CNS,1.24 µM
same,GI50,SF-539 CNS,0.296 µM
same,TGI,SF-539 CNS,1.12 µM
same,GI50,SK-MEL-2 melanoma,0.482 µM
same,TGI,SK-MEL-2 melanoma,2.15 µM
same,GI50,SK-MEL-28 melanoma,1.1 µM
same,TGI,SK-MEL-28 melanoma,3.15 µM
same,GI50,SK-MEL-5 melanoma,0.354 µM
same,TGI,SK-MEL-5 melanoma,1.32 µM
same,GI50,SK-OV-3 ovarian,0.352 µM
same,TGI,SK-OV-3 ovarian,1.95 µM
same,GI50,SN12C renal,0.715 µM
same,TGI,SN12C renal,2.56 µM
same,GI50,SNB-19 CNS,0.469 µM
same,TGI,SNB-19 CNS,1.98 µM
same,GI50,SNB-75 CNS,0.454 µM
same,TGI,SNB-75 CNS,5.88 µM
same,GI50,SR leukemia,0.436 µM
same,TGI,SR leukemia,3.95 µM
same,GI50,SW-620 colon,0.388 µM
same,TGI,SW-620 colon,1.68 µM
same,GI50,T-47D breast,0.48 µM
same,TGI,T-47D breast,2.78 µM
same,GI50,TK-10 renal,0.987 µM
same,TGI,TK-10 renal,2.62 µM
same,GI50,U251 CNS,0.446 µM
same,TGI,U251 CNS,1.67 µM
same,GI50,UACC-257 melanoma,0.68 µM
same,TGI,UACC-257 melanoma,3.9 µM
same,GI50,UACC-62 melanoma,0.351 µM
same,TGI,UACC-62 melanoma,1.6 µM
same,GI50,UO-31 renal,0.551 µM
same,TGI,UO-31 renal,2.2 µM
